For test [1], the target named is D(2) dopamine receptor (Homo sapiens) (UniProt P14416). The test can be described thus: Displacement of [3H]spiperone from human cloned dopamine D2 receptor at 10 uM. (In general: Loss of bound radioactivity is the signal in a displacement assay; it reports binding, not function.)
Test [2] deals with 5-hydroxytryptamine receptor 2A (Homo sapiens, UniProt P28223). The test can be described thus: Displacement of [3H]ketanserin from human cloned 5HT2A receptor.
The species named for test [3] is Homo sapiens. Kind of test: Ratio of pKi for human cloned 5HT2A receptor to pKi for human cloned dopamine D2 receptor.
Test [4] addresses T1, 5-hydroxytryptamine receptor 2C (Homo sapiens, UniProt P28335).
T1 sequence (P28335 whole entry): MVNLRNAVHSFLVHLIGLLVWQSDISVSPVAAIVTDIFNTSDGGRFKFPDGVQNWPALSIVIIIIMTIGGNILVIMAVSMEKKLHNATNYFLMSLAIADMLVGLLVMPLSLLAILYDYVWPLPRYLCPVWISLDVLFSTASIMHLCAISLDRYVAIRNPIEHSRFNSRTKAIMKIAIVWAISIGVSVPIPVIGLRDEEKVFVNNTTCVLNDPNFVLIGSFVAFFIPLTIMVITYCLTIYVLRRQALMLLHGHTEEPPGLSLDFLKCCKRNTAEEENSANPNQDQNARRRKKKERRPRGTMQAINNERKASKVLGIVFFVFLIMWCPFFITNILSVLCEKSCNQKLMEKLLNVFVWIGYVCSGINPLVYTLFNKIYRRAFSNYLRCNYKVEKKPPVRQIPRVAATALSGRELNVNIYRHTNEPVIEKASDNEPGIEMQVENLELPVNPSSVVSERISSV
The test can be described thus: Displacement of [3H]mesulergine from human 5HT2C receptor.

Test [5] concerns the target D(3) dopamine receptor (Homo sapiens, UniProt P35462).
Description: Displacement of [3H]spiperone from human dopamine D3 receptor
For test [6], the target named is D(1A) dopamine receptor (Homo sapiens, UniProt P21728).
D(1A) dopamine receptor, sequence (P21728 whole entry): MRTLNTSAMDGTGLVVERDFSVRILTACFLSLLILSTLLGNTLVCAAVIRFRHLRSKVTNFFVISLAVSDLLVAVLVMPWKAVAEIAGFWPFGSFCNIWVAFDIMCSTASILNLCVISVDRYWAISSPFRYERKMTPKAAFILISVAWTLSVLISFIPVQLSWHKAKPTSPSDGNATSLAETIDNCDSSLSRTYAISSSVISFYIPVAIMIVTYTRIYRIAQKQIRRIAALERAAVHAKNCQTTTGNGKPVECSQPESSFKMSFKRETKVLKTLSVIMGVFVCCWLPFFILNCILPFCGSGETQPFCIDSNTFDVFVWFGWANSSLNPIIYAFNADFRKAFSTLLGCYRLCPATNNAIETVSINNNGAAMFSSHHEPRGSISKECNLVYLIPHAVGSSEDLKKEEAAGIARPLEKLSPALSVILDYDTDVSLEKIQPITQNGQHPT
Description: Displacement of [3H]SCH23390 from human dopamine D1 receptor

The structures appear in SMILES notation.

D(3) dopamine receptor, sequence (P35462 whole entry): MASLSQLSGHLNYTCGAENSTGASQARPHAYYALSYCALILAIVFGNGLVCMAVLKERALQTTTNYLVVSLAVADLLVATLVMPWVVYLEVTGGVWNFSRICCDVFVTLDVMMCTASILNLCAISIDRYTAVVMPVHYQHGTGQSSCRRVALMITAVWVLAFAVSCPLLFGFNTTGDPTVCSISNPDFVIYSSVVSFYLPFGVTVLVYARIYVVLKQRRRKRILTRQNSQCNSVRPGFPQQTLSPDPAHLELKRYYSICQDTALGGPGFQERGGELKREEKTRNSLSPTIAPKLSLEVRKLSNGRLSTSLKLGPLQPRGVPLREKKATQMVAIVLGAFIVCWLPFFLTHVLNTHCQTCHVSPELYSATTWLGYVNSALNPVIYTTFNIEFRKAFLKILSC
5-hydroxytryptamine receptor 2A, sequence (P28223 whole entry): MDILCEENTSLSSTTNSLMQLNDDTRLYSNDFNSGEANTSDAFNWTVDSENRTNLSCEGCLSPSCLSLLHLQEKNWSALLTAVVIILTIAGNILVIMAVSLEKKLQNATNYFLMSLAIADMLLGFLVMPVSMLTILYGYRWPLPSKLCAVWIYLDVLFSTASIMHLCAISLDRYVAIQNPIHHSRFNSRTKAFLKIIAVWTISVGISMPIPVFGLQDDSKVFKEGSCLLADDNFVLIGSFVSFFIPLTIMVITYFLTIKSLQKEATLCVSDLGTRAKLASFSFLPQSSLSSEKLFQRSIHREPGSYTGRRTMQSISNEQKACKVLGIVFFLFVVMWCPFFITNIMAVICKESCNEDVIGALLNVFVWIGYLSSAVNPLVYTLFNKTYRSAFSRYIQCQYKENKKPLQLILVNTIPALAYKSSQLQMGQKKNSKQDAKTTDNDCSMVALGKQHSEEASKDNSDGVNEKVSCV
D(2) dopamine receptor (Homo sapiens), sequence (P14416 whole entry): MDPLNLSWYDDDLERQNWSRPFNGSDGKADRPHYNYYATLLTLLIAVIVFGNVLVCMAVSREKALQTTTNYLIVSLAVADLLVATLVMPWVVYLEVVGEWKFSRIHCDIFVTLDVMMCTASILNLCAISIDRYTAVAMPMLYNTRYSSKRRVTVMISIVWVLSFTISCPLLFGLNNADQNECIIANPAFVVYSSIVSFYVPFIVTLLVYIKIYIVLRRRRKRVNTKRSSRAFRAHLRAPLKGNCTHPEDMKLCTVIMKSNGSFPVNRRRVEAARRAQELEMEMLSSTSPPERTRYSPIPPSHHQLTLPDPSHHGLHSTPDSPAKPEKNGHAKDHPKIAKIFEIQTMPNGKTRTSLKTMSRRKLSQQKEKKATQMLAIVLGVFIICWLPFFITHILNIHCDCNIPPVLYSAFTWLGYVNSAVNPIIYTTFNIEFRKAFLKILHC

`O=C1CC(CN2CCC(C(=O)c3ccc(F)cc3)CC2)Cc2nc(-c3ccccc3)ncc21` (stereo not drawn): the inhibition – broadly, how much of the control response was suppressed – in test [1] was under 60%. Further, the Ki (in general, a measure of affinity in units of concentration, obtained from inhibition or displacement) in test [2] is 631 nM.

`CNc1ncc2c(n1)CC(CN1CCC(C(=O)c3ccc(F)cc3)CC1)CC2=O` (stereo not drawn) had a Ki in test [2] of 6.46 nM. Moreover, in test [3], the Ratio pKi is 1.23.

In turn, `O=C1CC(CN2CCC(c3noc4cc(F)ccc34)CC2)Cc2nc(-c3ccccc3)ncc21` (stereo not drawn) gave a Ki in test [2] of 126 nM. Also, in test [3], the Ratio pKi was 0.92.

Consider `CSc1ncc2c(n1)CC(CN1CCC(C(=O)c3ccc(F)cc3)CC1)CC2=O` (stereo not drawn), for which, in test [1], the inhibition is under 60%. The compound also showed a Ki in test [2] of 102 nM.

In test [2], `O=C1CC(CN2CCC(C(=O)c3ccc(F)cc3)CC2)Cc2ncncc21` (stereo not drawn) gave a Ki of 309 nM. For the same compound, the Ratio pKi in test [3] was 1.05.

Regarding `CSc1ncc2c(n1)CC(CN1CCC(c3noc4cc(F)ccc34)CC1)CC2=O` (stereo not drawn), the figures for the Ki in test [4], in test [2] and in test [5] were over 10000 nM, 4.57 nM and 44.7 nM, respectively.

As to `CNc1ncc2c(n1)CC(CN1CCC(c3noc4cc(F)ccc34)CC1)CC2=O` (stereo not drawn), the Ki in test [4] is over 10000 nM; in test [6], 42.7 nM; in test [2], 2.4 nM; in test [5], 200 nM. Further, the Ratio pKi in test [3] came to 1.18.

For `O=C1CC(CN2CCC(c3noc4cc(F)ccc34)CC2)Cc2ncncc21` (stereo not drawn), the Ki in test [4] is 501 nM; in test [6] it was 135 nM; in test [2], 23.4 nM; in test [5] it was 282 nM. Moreover, the Ratio pKi in test [3] was found to be 1.12.

Source of the values: ChEMBL document CHEMBL1154195, “Synthesis and binding affinity of potential atypical antipsychotics with the tetrahydroquinazolinone motif” (Bioorg Med Chem Lett, 2009).
